Reference: PubChem BioAssay (NCI)
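Values below derive from 48-hour exposures of cells grown in 96-well plates, with endpoints linearly interpolated between the two concentrations bracketing the appropriate inhibition level. TGI: total growth inhibition.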

What was measured:
Assay in all cases: NCI tumour cell line growth inhibition, 48 h
DMS 114 small cell lung = tested on: DMS 114 small cell lung
HOP-18 NSCLC = tested on: HOP-18 NSCLC
KM20L2 colon = tested on: KM20L2 colon
SNB-78 CNS = tested on: SNB-78 CNS
XF 498 CNS = tested on: XF 498 CNS
DLD-1 colon = tested on: DLD-1 colon
RXF-631 renal = tested on: RXF-631 renal
P388 leukemia = tested on: P388 leukemia
P388/ADR leukemia = tested on: P388/ADR leukemia
SN12K1 renal = tested on: SN12K1 renal

Row | Structure (SMILES) | TGI (DMS 114 small cell lung) [µM] | TGI (HOP-18 NSCLC) [µM] | TGI (KM20L2 colon) [µM] | TGI (SNB-78 CNS) [µM] | TGI (XF 498 CNS) [µM] | TGI (DLD-1 colon) [µM] | TGI (RXF-631 renal) [µM] | TGI (P388 leukemia) [µM] | TGI (P388/ADR leukemia) [µM] | TGI (SN12K1 renal) [µM]
1 | CCc1cc(C)cc2[n+]1CC=C2 | 44.3 | 0.0991 | 95.6 | > 100 | 20.4 | – | – | – | – | –
2 | COc1ccc2c(c1)Oc1cc(O)ccc1[C@H]2c1ccccc1C(=O)NC(C)c1ccccc1 (some centres undefined) | 24.9 | – | 35.3 | 33.5 | – | 43.4 | – | – | – | –
3 | COc1cccc2c1C(=O)c1c(O)c3c(c(O)c1C2=O)C[C@@](O)(C(C)=O)CC3S(=O)(=O)O (some centres undefined) | > 100 | > 100 | > 100 | > 100 | > 100 | > 100 | > 100 | – | – | –
4 | Nc1nc(NCCOCP(=O)(O)O)c([N+](=O)[O-])c(=O)[nH]1 | – | > 100 | > 100 | > 100 | > 100 | > 100 | – | – | – | –
5 | COC(=O)[C@H](CC(C)C)NC(=O)[C@H](Cc1ccccc1)N1CC2C=CC1C2 (some centres undefined) | > 100 | > 100 | > 100 | – | > 100 | – | – | – | – | –
6 | CC(C)OP(=S)(NC(=S)c1ccccc1)OC(C)C | > 100 | – | > 100 | > 100 | > 100 | > 100 | – | – | – | –
7 | COC1OCC(O)C(NC(=O)N(C)N=O)C1O (centres undefined) | > 100 | > 100 | > 100 | > 100 | > 100 | > 100 | – | > 100 | > 100 | > 100
8 | COc1cccc2c1OC1Sc3ccccc3-c3nn(-c4ccccc4)c-2c31 (centres undefined) | > 100 | > 100 | > 100 | > 100 | > 100 | > 100 | > 100 | – | – | –
9 | O=C(Cc1nc2ccc(C(=O)c3ccccc3)cc2[nH]c1=O)C(=O)Nc1nc2ccccc2[nH]1 | 79.4 | > 100 | > 100 | – | – | – | > 100 | – | – | –
10 | O=C1C=C(Nc2ccccc2C(=O)CC(=O)C(=O)Nc2ccc(Cl)cc2)c2ccccc2C1=O | 16.8 | 8.72 | > 100 | 81 | 28.6 | 35.7 | > 80.8 | – | – | –
11 | CC1=NN(C(=O)Cc2ccccc2)C(=O)/C1=C\c1ccc([N+](=O)[O-])cc1 | > 100 | – | > 100 | > 100 | > 100 | > 100 | – | – | – | –
12 | CC(C)(C)N/N=C(\C(=O)Nc1cccc(Cl)c1)C1C(=O)Nc2ccccc2S1=O (centres undefined) | > 100 | > 100 | > 100 | – | > 100 | > 100 | > 100 | – | – | –
13 | CC(=O)c1ccccc1NC(=O)C(=O)C(C(=O)c1ccc2ccccc2c1)C1OC(=O)c2ccccc21 (centres undefined) | 43 | 38.7 | 94 | 84.8 | 18.1 | 32.3 | – | – | – | –
